Measured values from patent US8309608B2, “Use of eNOS transcription enhancers in the cell therapy of ischemic heart diseases” (Sanofi-Aventis Deutschland GmbH, priority 2003, dated 2012).

Experiments:
[1] = test system: eNOS promoter (eNOS transcription); experiment: luciferase assay for activation of eNOS transcription; assay type: cell-based; details: human endothelial cell line with eNOS promoter-luciferase construct, 18 hours incubation; for TIR(max) value (maximum transcription induction ratio): ratio vs solvent alone; for EC50: read-out: EC50 value of transcription induction ratio
Protocol: Activation of eNOS transcription was measured as described in detail in Li et al., Activation of protein kinase C alpha and/or epsilon enhances transcription of the human endothelial nitric oxide synthase gene, Mol. Pharmacol. 1998, 53:630-637. Briefly, a 3.5 kB long fragment 5′ of the starting codon of the eNOS gene was cloned, sequenced and cloned in firefly luciferase expression plasmids to monitor activation of the eNOS promoter by reporter gene activity. A human endothelial cell line stable transfected and expressing this promoter-reporter construct was used for compound testing. Cells were incubated for 18 hours with compounds. All compounds were dissolved before in sterile dimethylsulfoxide (DMSO). A final concentration of 0.5% DMSO in complete medium was allowed. Induction of reporter gene expression in these cells was measured using a standard luciferase assay system (Promega, Madison, Wis., USA; Cat. No E150) according to the manufacturer's instructions. Luciferase induction in cells incubated with compounds were compared to those incubated with solvent alone. The ratio of both activities (transcription induction ratio, TIR) was plotted as a function of compound concentration. Typically, TIR values started at low concentrations at a ratio of 1, indicating no compound effect, and extended up to a maximum TIR value TIR(max) which indicates the increase of the eNOS transcription. EC50 values of transcription induction ratios as a function of compound concentration were determined graphically.

[2] = test system: bone marrow stem and progenitor cells; experiment: migratory capacity of bone marrow stem and progenitor cells in response to SDF-1 (modified Boyden chamber); assay type: cell-based, human; details: 100 ng/ml SDF-1
Protocol: For incubation with the eNOS transcription enhancer 4-fluoro-N-(indan-2-yl)benzamide, 1 ml of a suspension of 1000000 stem and progenitor cells in 1 ml of X-Vivo 10 cell culture medium was mixed with 1 μl of a solution of 4-fluoro-N-(indan-2-yl)benzamide in dimethylsulfoxide (DMSO) which had been prepared by dissolution of 1.275 mg of 4-fluoro-N-(indan-2-yl)benzamide in 1 ml of DMSO. The concentration of 4-fluoro-N-(indan-2-yl)benzamide in the resulting mixture was 5 μM. For incubation with the eNOS transcription enhancer 4-fluoro-N-(indan-2-yl)benzamide and the eNOS inhibitor N^G-monomethyl-L-arginine (L-NMMA), in addition to 4-fluoro-N-(indan-2-yl)benzamide, L-NMMA (Sigma, St. Louis, Mo., USA) was added to the cell suspension to give a resulting mixture with a 4-fluoro-N-(indan-2-yl)benzamide concentration of 5 μM and an L-NMMA concentration of 1 mM. Incubation was carried for 18 hours at a temperature of 37° C. under an atmosphere of air containing 5% of carbon dioxide. The cells were isolated by centrifugation, washed two times with PBS and resuspended in X-Vivo 10.
For assessing the migratory capacity of bone marrow stem and progenitor cells, a total of 1×10^6 bone marrow stem and progenitor cells were resuspended in 250 μl of X-Vivo 10 and placed in the upper chamber of a modified Boyden chamber filled with matrigel (BioCoat invasion assay, 8 μm pore size, Becton Dickinson Labware, Two Oak Park, Bedford, Mass., USA). Then, the chamber was placed in a 24-well culture dish containing 500 μl endothelial basic medium (EBM) supplemented with either phosphate buffered saline (PBS), 50 ng/ml VEGF, or 100 ng/ml SDF-1. After 24 hours incubation at 37° C., transmigrated cells were counted.

[3] = test system: athymic NMRI nude mice, hind limb ischemia; experiment: in vivo hind limb ischemia model in mice (laser Doppler blood flow after injection of pretreated cells); details: 5×10^5 cells/mouse i.v., measured after two weeks
Protocol: For incubation with the eNOS transcription enhancer 4-fluoro-N-(indan-2-yl)benzamide, 1 ml of a suspension of 1000000 stem and progenitor cells in 1 ml of X-Vivo 10 cell culture medium was mixed with 1 μl of a solution of 4-fluoro-N-(indan-2-yl)benzamide in dimethylsulfoxide (DMSO) which had been prepared by dissolution of 1.275 mg of 4-fluoro-N-(indan-2-yl)benzamide in 1 ml of DMSO. The concentration of 4-fluoro-N-(indan-2-yl)benzamide in the resulting mixture was 5 μM. […]
The neovascularization capacity of bone marrow stem and progenitor cells was investigated in a murine model of hind limb ischemia by use of 8 to 10 week old athymic NMRI nude mice (The Jackson Laboratory, Bar Harbor, Me., USA) weighing 18 to 22 g. […] After two weeks the limb perfusion was determined. Specifically, the ischemic (right) limb/normal (left) limb blood flow ratio was measured using a laser Doppler blood flow meter (Laser Doppler Perfusion Imager System, MoorLDI-Mark 2, Moor Instruments, Wilmington, Del., USA). […] After twice recording laser Doppler color images, the average perfusions of the ischemic and non-ischemic limb were calculated on the basis of colored histogram pixels. To minimize variables including ambient light and temperature, calculated perfusion was expressed as the ratio of ischemic to non-ischemic hind limb perfusion. […]

Structure (SMILES)	TIR(max) value (maximum transcription induction ratio) [1]	EC50 [1]	melting point	migratory response to SDF-1 ([2]; cells from the healthy controls, 18 hours of treatment with 5 μM compound)	migratory response to SDF-1 ([2]; cells from the healthy controls, 18 hours of treatment with 5 μM compound, listed as 4-fluoro-(N-indan-2-yl)benzamide)	migratory response to SDF-1 ([2]; cells from the patients, 18 hours of treatment with 5 μM compound and 1 mM L-NMMA)	migratory response to SDF-1 ([2]; cells from the patients, 18 hours of treatment with 5 μM compound)	laser Doppler-derived relative blood flow (ratio ischemic limb/normal limb) ([3]; cells from the patients treated for 18 hours with 5 μM compound and 1 mM L-NMMA)	laser Doppler-derived relative blood flow (ratio ischemic limb/normal limb) ([3]; cells from the patients treated for 18 hours with 5 μM compound)
O=C(NC1Cc2ccccc2C1)c1ccc2c(c1)OC(F)(F)O2 [2,2-difluorobenzo[1,3]dioxol-5-carboxylic acid indan-2-ylamide]	2.7	140 nM	147.5 °C	–	–	–	–	–	–
O=C(NC1Cc2ccccc2C1)c1ccc(F)cc1 [4-fluoro-N-(indan-2-yl)benzamide]	4.10	800 nM	167 °C	111.2±38.5 ×1000 migrated cells	74.3±21.5 ×1000 migrated cells	23.9±7.4 ×1000 migrated cells	74.0±20.7 ×1000 migrated cells	39.7 ± 10.3%	59.1 ± 11.6%
